This test has as its target T1, recombinant human SAE enzyme (Homo sapiens, UniProt Q9UBT2).
T1 sequence (Q9UBT2 1-640): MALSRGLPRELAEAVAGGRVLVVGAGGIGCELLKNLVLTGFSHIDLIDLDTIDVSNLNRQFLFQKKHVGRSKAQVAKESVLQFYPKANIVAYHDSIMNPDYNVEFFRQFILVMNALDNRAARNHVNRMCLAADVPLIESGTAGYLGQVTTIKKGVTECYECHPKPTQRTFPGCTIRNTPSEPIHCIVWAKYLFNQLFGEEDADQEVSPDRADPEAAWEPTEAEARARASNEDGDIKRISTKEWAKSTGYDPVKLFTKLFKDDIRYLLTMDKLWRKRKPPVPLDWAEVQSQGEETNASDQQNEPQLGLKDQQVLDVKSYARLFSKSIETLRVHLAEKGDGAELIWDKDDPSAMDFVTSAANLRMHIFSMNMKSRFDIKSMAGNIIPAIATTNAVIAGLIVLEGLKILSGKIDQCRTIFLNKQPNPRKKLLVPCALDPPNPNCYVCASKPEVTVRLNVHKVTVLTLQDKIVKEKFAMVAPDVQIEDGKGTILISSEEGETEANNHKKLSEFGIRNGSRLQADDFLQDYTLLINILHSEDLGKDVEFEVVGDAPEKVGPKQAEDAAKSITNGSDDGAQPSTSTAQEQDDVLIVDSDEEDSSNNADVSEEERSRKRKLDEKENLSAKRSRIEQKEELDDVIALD
T1 sequence (Q9UBE0 1-346 partner): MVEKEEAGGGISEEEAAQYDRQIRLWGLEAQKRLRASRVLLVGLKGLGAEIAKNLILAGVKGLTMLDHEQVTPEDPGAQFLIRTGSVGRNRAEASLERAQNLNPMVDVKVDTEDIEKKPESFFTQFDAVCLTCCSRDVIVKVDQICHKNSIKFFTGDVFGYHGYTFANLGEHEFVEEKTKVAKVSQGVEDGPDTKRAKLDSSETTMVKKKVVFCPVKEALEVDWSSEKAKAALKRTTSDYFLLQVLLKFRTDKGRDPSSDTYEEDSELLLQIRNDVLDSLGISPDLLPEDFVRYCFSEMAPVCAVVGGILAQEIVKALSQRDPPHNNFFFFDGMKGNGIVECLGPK
As to the kind of experiment: SAE HTRF Enzyme Assay. It is filed as biochemical. To be noted: for IC50: class symbols A-C; for inhibition at 0.111 µM: compound concentration 0.111 μM, read-out: Percent Inhibition. A digest of the protocol: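 Sumoylation of Ubc9-GST by recombinant human SAE was followed by time-resolved FRET between Eu-cryptate anti-Flag and allophycocyanin anti-GST antibodies. The enzyme step used low ATP (0.5 μM) at pH 7.5 and ran 105 min at 24° C.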

On to `NS(=O)(=O)OC[C@H]1C[C@@H](Nc2ncncc2C(=O)c2ccn(S(=O)(=O)c3cccc(Br)c3)n2)[C@H](O)[C@@H]1O` [Compound I-1, [(1R,2R,3S,4R)-4-{[5-({1-[(3-bromophenyl)sulfonyl]-1H-pyrazol-3-yl}carbonyl)pyrimidin-4-yl]amino}-2,3-dihydroxycyclopentyl]methyl sulfamate], for which the IC50 was below 10 nM and the inhibition at 0.111 µM amounted to 98%.

For `Cc1ccnc(Cn2ccc(C(=O)c3cncnc3N[C@@H]3C[C@H](COS(N)(=O)=O)[C@@H](O)C3)n2)c1` [Compound I-162, [(1R,2S,4R)-2-hydroxy-4-{[5-({1-[(4-methylpyridin-2-yl)methyl]-1H-pyrazol-3-yl}carbonyl)pyrimidin-4-yl]amino}cyclopentyl]methyl sulfamate], the IC50 is below 10 nM and the inhibition at 0.111 µM worked out at 99%.

With `NS(=O)(=O)OC[C@H]1C[C@@H](Nc2ncncc2C(=O)c2ccn(Cc3ccccc3C(F)(F)F)n2)C[C@@H]1O` [Compound I-226, [(1R,2S,4R)-2-hydroxy-4-{[5-({1-[2-(trifluoromethyl)benzyl]-1H-pyrazol-3-yl}carbonyl)pyrimidin-4-yl]amino}cyclopentyl]methyl sulfamate], the IC50 lay in the range of 10 to 100 nM and the inhibition at 0.111 µM is 85%.

Regarding `CC(C)n1ccc(C(=O)c2cncnc2N[C@@H]2C[C@H](COS(N)(=O)=O)[C@@H](O)[C@H]2O)n1` [Compound I-220, [(1R,2R,3S,4R)-2,3-dihydroxy-4-({5-[(1-isopropyl-1H-pyrazol-3-yl)carbonyl]pyrimidin-4-yl}amino)cyclopentyl]methyl sulfamate], the 50% inhibitory concentration (IC50) was 10 to 100 nM and the inhibition at 0.111 µM was determined as 57%.

Consider `NS(=O)(=O)OC[C@H]1C[C@@H](Nc2ncncc2C(=O)c2ccn(Cc3ccc(Cl)c(Br)c3)c2)C[C@@H]1O` [Compound I-43, {(1R,2S,4R)-4-[(5-{[1-(3-bromo-4-chlorobenzyl)-1H-pyrrol-3-yl]carbonyl}pyrimidin-4-yl)amino]-2-hydroxycyclopentyl}methyl sulfamate], for which the 50% inhibitory concentration (IC50) was below 10 nM and the inhibition at 0.111 µM is 98%.

`NS(=O)(=O)OC[C@H]1C[C@@H](Nc2ncncc2C(=O)c2ccn(Cc3cccc(N4CCOCC4)c3)n2)C[C@@H]1O` [Compound I-251, [(1R,2S,4R)-2-hydroxy-4-{[5-({1-[3-(morpholin-4-yl)benzyl]-1H-pyrazol-3-yl}carbonyl)pyrimidin-4-yl]amino}cyclopentyl]methyl sulfamate]: the IC50 was 10 to 100 nM and the inhibition at 0.111 µM turned out to be 71%.

Turning to `NS(=O)(=O)OC[C@H]1C[C@@H](Nc2ncncc2C(=O)c2ccn(Cc3c(F)cc(F)cc3F)n2)C[C@@H]1O` [Compound I-286, {(1R,2S,4R)-2-hydroxy-4-[(5-{[1-(2,4,6-trifluorobenzyl)-1H-pyrazol-3-yl]carbonyl}pyrimidin-4-yl)amino]cyclopentyl}methyl sulfamate], the concentration for half-maximal inhibition (IC50) was below 10 nM and the inhibition at 0.111 µM was determined as 93%.

Take `NS(=O)(=O)OC[C@H]1C[C@@H](Nc2ncncc2C(=O)c2ccn(Cc3ccc(F)c(Br)c3)c2)[C@@H](F)[C@@H]1O` [Compound I-143, {(1R,2R,3R,4R)-4-[(5-{[1-(3-bromo-4-fluorobenzyl)-1H-pyrrol-3-yl]carbonyl}pyrimidin-4-yl)amino]-3-fluoro-2-hydroxycyclopentyl}methyl sulfamate]: the IC50 is below 10 nM and the inhibition at 0.111 µM was found to be 99%.

`NS(=O)(=O)OC[C@H]1C[C@@H](Nc2ncncc2C(=O)c2ccn(Cc3ccccc3OC(F)(F)F)n2)C[C@@H]1O` [Compound I-39, [(1R,2S,4R)-2-hydroxy-4-{[5-({1-[2-(trifluoromethoxy)benzyl]-1H-pyrazol-3-yl}carbonyl)pyrimidin-4-yl]amino}cyclopentyl]methyl sulfamate]: the concentration for half-maximal inhibition (IC50) was below 10 nM and the inhibition at 0.111 µM was found to be 98%.

Take `NS(=O)(=O)OC[C@H]1C[C@@H](Nc2ncncc2C(=O)c2ccn(/C=C\c3ccccc3)c2)C[C@@H]1O` [Compound I-200, [(1R,2S,4R)-2-Hydroxy-4-{[5-({1-[(Z)-2-phenylvinyl]-1H-pyrrol-3-yl}carbonyl)pyrimidin-4-yl]amino}cyclopentyl]methyl sulfamate]: the IC50 was below 10 nM and the inhibition at 0.111 µM was found to be 98%.

Consider `NS(=O)(=O)OC[C@H]1C[C@@H](Nc2ncncc2C(=O)c2cc(Cl)n(Cc3cccc(Br)c3)c2)[C@@H](F)[C@@H]1O` [Compound I-244, {(1R,2R,3R,4R)-4-[(5-{[1-(3-Bromobenzyl)-5-chloro-1H-pyrrol-3-yl]carbonyl}pyrimidin-4-yl)amino]-3-fluoro-2-hydroxycyclopentyl}methyl sulfamate], for which the IC50 is below 10 nM and the inhibition at 0.111 µM was 98%.

For the compound `NS(=O)(=O)OC[C@H]1C[C@@H](Nc2ncncc2C(=O)c2ccn(Cc3ccc(C(F)(F)F)s3)n2)C[C@@H]1O` [Compound I-183, [(1R,2S,4R)-2-hydroxy-4-({5-[(1-{[5-(trifluoromethyl)-2-thienyl]methyl}-1H-pyrazol-3-yl)carbonyl]pyrimidin-4-yl}amino)cyclopentyl]methyl sulfamate], the 50% inhibitory concentration (IC50) was below 10 nM and the inhibition at 0.111 µM worked out at 96%.

Regarding `NS(=O)(=O)OC[C@H]1C[C@@H](Nc2ncncc2C(=O)c2ccn(Cc3cccc(OC(F)(F)F)c3)c2)[C@@H](F)[C@@H]1O` [Compound I-131, [(1R,2R,3R,4R)-3-Fluoro-2-hydroxy-4-{[5-({1-[3-(trifluoromethoxy)benzyl]-1H-pyrrol-3-yl}carbonyl)pyrimidin-4-yl]amino}cyclopentyl]methyl sulfamate], the half-maximal inhibitory concentration (IC50) was below 10 nM and the inhibition at 0.111 µM amounted to 96%.

On to `NS(=O)(=O)OC[C@H]1C[C@@H](Nc2ncncc2C(=O)c2ccn(Cc3cccc(F)c3F)n2)[C@H](O)[C@@H]1O` [Compound I-327, {(1R,2R,3S,4R)-4-[(5-{[1-(2,3-difluorobenzyl)-1H-pyrazol-3-yl]carbonyl}pyrimidin-4-yl)amino]-2,3-dihydroxycyclopentyl}methyl sulfamate], for which the 50% inhibitory concentration (IC50) is below 10 nM and the inhibition at 0.111 µM came out at 99%.

For `CC(C)(C)c1cccc(Cn2ccc(C(=O)c3cncnc3N[C@@H]3C[C@H](COS(N)(=O)=O)[C@@H](O)C3)n2)c1` [Compound I-64, {(1R,2S,4R)-4-[(5-{[1-(3--tert-butylbenzyl)-1H-pyrazol-3-yl]carbonyl}pyrimidin-4-yl)amino]-2-hydroxycyclopentyl}methyl sulfamate], the half-inhibitory concentration (IC50) lay within 10 to 100 nM and the inhibition at 0.111 µM turned out to be 91%.

With `Cc1cc(C(=O)c2cncnc2N[C@@H]2C[C@H](COS(N)(=O)=O)[C@@H](O)C2)nn1Cc1ccccc1` [Compound I-66, [(1R,2S,4R)-4-({5-[(1-benzyl-5-methyl-1H-pyrazol-3-yl)carbonyl]pyrimidin-4-yl}amino)-2-hydroxycyclopentyl]methyl sulfamate], the IC50 was below 10 nM and the inhibition at 0.111 µM was 98%.

On to `NS(=O)(=O)OC[C@H]1C[C@@H](Nc2ncncc2C(=O)c2ccn(Cc3cc(Cl)ccc3Cl)n2)[C@@H](F)[C@@H]1O` [Compound I-307, {(1R,2R,3R,4R)-4-[(5-{[1-(2,5-dichlorobenzyl)-1H-pyrazol-3-yl]carbonyl}pyrimidin-4-yl)amino]-3-fluoro-2-hydroxycyclopentyl}methyl sulfamate], for which the IC50 was below 10 nM and the inhibition at 0.111 µM is 98%.

As for `CC(c1cccc(Br)c1)n1ccc(C(=O)c2cncnc2N[C@@H]2C[C@H](COS(N)(=O)=O)[C@@H](O)[C@@H]2F)c1` (single isomer, unassigned) [Compound I-192, [(1R,2R,3R,4R)-4-{[5-({1-[(1S)-1-(3-bromophenyl)ethyl]-1H-pyrrol-3-yl}carbonyl)pyrimidin-4-yl]amino}-3-fluoro-2-hydroxycyclopentyl]methyl sulfamate or [(1R,2R,3R,4R)-4-{[5-({1-[(1R)-1-(3-bromophenyl)ethyl]-1H-pyrrol-3-yl}carbonyl)pyrimidin-4-yl]amino}-3-fluoro-2-hydroxycyclopentyl]methyl sulfamate], the concentration for half-maximal inhibition (IC50) was below 10 nM and the inhibition at 0.111 µM was determined as 98%.

Turning to `NS(=O)(=O)OC[C@H]1C[C@@H](Nc2ncncc2C(=O)c2ccn(Cc3ccc(Cl)c(F)c3)n2)[C@H](O)[C@@H]1O` [Compound I-112, {(1R,2R,3S,4R)-4-[(5-{[1-(4-chloro-3-fluorobenzyl)-1H-pyrazol-3-yl]carbonyl}pyrimidin-4-yl)amino]-2,3-dihydroxycyclopentyl}methyl sulfamate], the 50% inhibitory concentration (IC50) is below 10 nM and the inhibition at 0.111 µM amounted to 97%.
